Experimental data: EP4105215A1, “CO-CRYSTAL OF APIXABAN WITH A CARBOXYLIC ACID” (University of Limerick, priority 2021, dated 2022)

Legend:
[1] = single 10 mg dose; cited from earlier work
[2] = Dissolution / solubility in PBS 6.8 analysed by HPLC; assay type: physicochemical; settings: PBS 6.8 at 37°C, triplicate
Protocol: 25 mg equivalent of APX was sieved to 75-100µm using standard-mesh sieve and the resulting slurry was added to 500 mL phosphate buffer solution (PBS) 6.8 at 37°C stirring at 100 rpm. 1mL aliquots were taken at 1 3, 5, 10, 15, 30, 60, 120, 240, 480, 720 and 1440 minutes. Each aliquot filtered through a 0.45 µm Whattmann syringe filter. 500 µL of filtered aliquot and 500 µL of methanol were pipetted into a vial and injected to HPLC. All dissolution experiments for APX and cocrystals were carried in triplicates.
The dissolution aliquots were analysed using a Shimadzu (LC-20A) HPLC instrument with a Gemini® C18 (250 x 4.6 x 5 µm) column. The wavelength was set to 235nm with an injection volume of 10 µL and a flow rate of 1 mL/min with the oven set at 40°C.
Physicochemical properties such as PBS 6.8 solubility were analysed by high performance liquid chromatography (HPLC). […] Table 4: Solubility of APX and respective cocrystals in PBS 6.8 at 37°C

- Acute, T= 60 mins Conc ([2]; 60 mins): 0.0241 mg/mL
- Chronic, T= 720mins Conc ([2]; 720 mins): 0.0303 mg/mL
SMILES: COc1ccc(-n2nc(C(N)=O)c3c2C(=O)N(c2ccc(N4CCCCC4=O)cc2)CC3)cc1 [APX, 1-(4-methoxyphenyl)-7-oxo-6-(4-(2-oxopiperidin-1-yl)phenyl)-4,5,6,7-tetrahydro-1H-pyrazolo[3,4-c]pyridine-3-carboxamide]
- oral bioavailability [1]: about 50%
